For orientation: IC50 means the concentration that gives 50% inhibition. The low end stands for greater potency, the high end for weaker potency.

The record followed here is patent publication US9376426B2, “Pyridazinone derivatives” (MERCK PATENT GMBH, priority 2009, dated 2016).

Test [1] deals with T1, Met kinase (Homo sapiens, UniProt P08581). Nature of the test: Met kinase inhibition (cell). In kind it is cell-based.
In test [2] the target is T1, Met kinase. Nature of the test: Met kinase inhibition, flashplate method (enzyme). Type of test: biochemical. Also on record: 6His (N); purchased Upstate 14-526; host or cells: Sf21 insect cells (S. frugiperda), baculovirus. The text has this: Measurement of Met Kinase Activity
According to the manufacturer's data (Met, active, upstate, catalogue No. 14-526), Met kinase is expressed for the purposes of protein production in insect cells (Sf21; S. frugiperda) and subsequent affinity-chromatographic purification as “N-terminal 6His-tagged” recombinant human protein in a baculovirus expression vector.
Flashplate Method (Met Kinase)
The test plates used are 96-well Flashplate® microtitre plates from Perkin Elmer (Cat. No. SMP200). The components of the kinase reaction described below are pipetted into the assay plate. The Met kinase and the substrate poly Ala-Glu-Lys-Tyr, (pAGLT, 6:2:5:1), are incubated for 3 hrs at room temperature with radioactively labelled ^33P-ATP in the presence and absence of test substances in a total volume of 100 μl. The reaction is terminated using 150 μl of a 60 mM EDTA solution. After incubation for a further 30 min at room temperature, the supernatants are filtered off with suction, and the wells are washed three times with 200 μl of 0.9% NaCl solution each time. The measurement of the bound radioactivity is carried out by means of a scintillation measuring instrument (Topcount NXT, Perkin-Elmer).
The full value used is the inhibitor-free kinase reaction. This should be approximately in the range 6000-9000 cpm. The pharmacological zero value used is staurosporin in a final concentration of 0.1 mM. The inhibitory values (IC50) are determined using the RS1_MTS program.
Kinase reaction conditions per well:
10 μl of substance to be tested in assay buffer with 10% of DMSO
10 μl of ATP (final concentration 1 μM cold, 0.35 μCi of ^33P-ATP)
50 μl of Met kinase/substrate mixture in assay buffer;
• (10 ng of enzyme/well, 50 ng of pAGLT/well) • Solutions used: • Assay buffer: • 50 mM HEPES • 3 mM magnesium chloride • 3 μM sodium orthovanadate • 3 mM manganese(II) chloride • 1 mM dithiothreitol (DTT) • pH=7.5 (to be set using sodium hydroxide) • Stop solution: • 60 mM Titriplex III (EDTA) • ^33P-ATP: Perkin-Elmer; • Met kinase: Upstate, Cat. No. 14-526, Stock 1 μg/10 μl; spec. activity 954 U/mg; • Poly-Ala-Glu-Lys-Tyr, 6:2:5:1:Sigma Cat. No. P1152 In-Vivo Tests Experimental Procedure: […]

Where a name gives a salt, the structure may show the parent alone.

T1 sequence (P08581 25-1390): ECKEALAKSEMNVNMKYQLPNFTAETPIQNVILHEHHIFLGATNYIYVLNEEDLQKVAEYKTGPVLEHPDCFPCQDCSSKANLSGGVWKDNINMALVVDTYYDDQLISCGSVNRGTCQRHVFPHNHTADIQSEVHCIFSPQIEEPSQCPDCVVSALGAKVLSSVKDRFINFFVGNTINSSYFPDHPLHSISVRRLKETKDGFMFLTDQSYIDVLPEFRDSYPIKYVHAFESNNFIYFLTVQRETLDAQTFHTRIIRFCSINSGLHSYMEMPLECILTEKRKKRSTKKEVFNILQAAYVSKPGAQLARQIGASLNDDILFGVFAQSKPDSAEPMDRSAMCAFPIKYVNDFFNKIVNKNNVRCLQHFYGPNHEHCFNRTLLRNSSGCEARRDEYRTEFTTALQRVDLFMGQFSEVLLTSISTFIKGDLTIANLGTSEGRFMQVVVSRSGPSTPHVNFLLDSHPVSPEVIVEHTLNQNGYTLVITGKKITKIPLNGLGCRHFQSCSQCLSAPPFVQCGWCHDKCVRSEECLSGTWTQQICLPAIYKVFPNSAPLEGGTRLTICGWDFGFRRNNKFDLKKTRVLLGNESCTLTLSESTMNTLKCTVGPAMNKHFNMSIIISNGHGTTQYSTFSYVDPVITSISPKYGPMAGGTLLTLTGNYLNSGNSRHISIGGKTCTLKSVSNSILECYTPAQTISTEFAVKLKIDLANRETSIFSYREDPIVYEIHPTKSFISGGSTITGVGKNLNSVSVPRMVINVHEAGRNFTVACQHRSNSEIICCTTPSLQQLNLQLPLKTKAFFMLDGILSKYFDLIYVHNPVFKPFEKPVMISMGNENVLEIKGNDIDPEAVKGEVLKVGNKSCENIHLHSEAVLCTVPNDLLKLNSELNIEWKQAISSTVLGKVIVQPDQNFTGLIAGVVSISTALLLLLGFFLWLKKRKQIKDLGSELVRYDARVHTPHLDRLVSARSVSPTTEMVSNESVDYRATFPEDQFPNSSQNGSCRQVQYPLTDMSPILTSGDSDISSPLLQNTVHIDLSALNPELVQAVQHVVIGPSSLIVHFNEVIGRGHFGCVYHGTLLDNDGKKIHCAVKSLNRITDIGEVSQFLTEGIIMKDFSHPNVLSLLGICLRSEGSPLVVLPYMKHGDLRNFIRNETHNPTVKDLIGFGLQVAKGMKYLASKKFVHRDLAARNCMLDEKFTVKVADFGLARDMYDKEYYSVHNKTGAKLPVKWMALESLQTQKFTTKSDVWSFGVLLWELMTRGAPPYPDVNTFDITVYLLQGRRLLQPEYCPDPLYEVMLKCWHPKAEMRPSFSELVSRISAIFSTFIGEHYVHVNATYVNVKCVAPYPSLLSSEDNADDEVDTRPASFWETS

With `CN(C)CCCOc1cnc(-c2cccc(Cn3nc(Nc4ccccc4)ccc3=O)c2)nc1` [Compound A1, 2-{3-[5-(3-dimethylaminopropoxy)pyrimidin-2-yl]benzyl}-6-phenylamino-2H-pyridazin-3-one], the IC50 fell in the range of 100 to 10000 nM at Met kinase [1] and 1 to 100 nM on Met kinase [2].
`O=c1ccc(Nc2ccccc2)nn1Cc1cccc(-c2ncc(-c3cnn(C4CCNCC4)c3)cn2)c1` [Compound A2, 6-phenylamino-2-{3-[5-(1-piperidin-4-yl-1H-pyrazol-4-yl)pyrimidin-2-yl]benzyl}-2H-pyridazin-3-one]: the IC50 against Met kinase [1] was 100 to 10000 nM; at Met kinase [2] it was 1 to 100 nM.
With `O=c1ccc(Oc2ccccc2)nn1Cc1cccc(-c2ncc(-c3cnn(CCN4CCCC4)c3)cn2)c1` [Compound A3, 6-phenoxy-2-(3-{5-[1-(2-pyrrolidin-1-ylethyl)-1H-pyrazol-4-yl]pyrimidin-2-yl}benzyl)-2H-pyridazin-3-one], the IC50 was 100 to 10000 nM at Met kinase [1] and 1 to 100 nM against Met kinase [2].
Taken in the same sequence, the figures for `O=c1ccc(Oc2ccccc2)nn1Cc1cccc(-c2ncc(-c3cnn(C4CCNCC4)c3)cn2)c1` [Compound A4, 6-phenoxy-2-{3-[5-(1-piperidin-4-yl-1H-pyrazol-4-yl)pyrimidin-2-yl]benzyl}-2H-pyridazin-3-one hydrochloride] were 100 to 10000 nM and 100 to 10000 nM.
The like results for `CN(C)CCCOc1cnc(-c2cccc(Cn3nc(C(N)=O)ccc3=O)c2)nc1` [Compound A8, 1-{3-[5-(3-dimethylaminopropoxy)pyrimidin-2-yl]benzyl}-6-oxo-1,6-dihydropyridazine-3-carboxamide] were, in that order, 100 to 10000 nM and 100 to 10000 nM.
